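1) Cells in 96-well plates. 2) Compound, 48 h, 5 concentrations. 3) Linear interpolation between surrounding doses. 4) Unreached endpoint = highest concentration. GI50 = concentration required for 50% inhibition of growth.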 Activity calls are given as the source filed them. Rule as the data show it: active = GI50 up to about 1.1 µM and inactive = higher.

The record followed here is ChEMBL document CHEMBL1201862, “PubChem BioAssay data set” (2004).

Among the test systems are RPMI-8226; TK-10; COLO 205; CCRF-CEM; BT-549; U-251; SF-295; DU-145; SF-268; A498; SNB-19; OVCAR-5; HOP-92; Hs-578T; HCT-116; ACHN; 786-0; MCF7; HT-29.
What all share (assay): DTP human tumour cell line panel, 48 h

Regarding `Nc1nc(N)c(N=Nc2ccc([As](=O)(O)O)c(O)c2)c(N)n1`, the GI50 (commonly the concentration at which growth is held to half of that of the control) is 3.21 µM (inactive) with RPMI-8226; 16.8 µM (inactive) with TK-10; 22 µM (inactive) in the test on COLO 205; 1.9 µM (inactive) in the test on CCRF-CEM; 32.4 µM (inactive) in the test on BT-549; 22.9 µM (inactive) in the test with U-251. The GI50 with SF-295 was 33.7 µM (inactive); with DU-145, 7.5 µM (inactive); with SF-268, 55.8 µM (inactive); in the test on A498 it was 83.6 µM (inactive); with SNB-19 it was 43.2 µM (inactive); with OVCAR-5 it was > 100 µM (inactive). Further, the GI50 with HOP-92 is 35.3 µM (inactive); with Hs-578T it was 13 µM (inactive); with HCT-116, 7.24 µM (inactive); in the test on ACHN, 49 µM (inactive); in the test on 786-0, 20 µM (inactive); in the test with MCF7, 3.75 µM (inactive). For the same compound, in the test with HT-29, the GI50 was 3.75 µM (inactive).

In the case of `Cn1c(=O)c(C(=O)Nc2nc(C34CC5CC(CC(C5)C3)C4)cs2)c(O)c2ccccc21`, the GI50 with RPMI-8226 is > 100 µM (inactive); in the test on TK-10, 25.1 µM (inactive); with COLO 205, > 100 µM (inactive); with CCRF-CEM, 41.2 µM (inactive); in the test on BT-549, 75.2 µM (inactive); in the test on U-251, 57.5 µM (inactive). The GI50 in the test with SF-295 was > 100 µM (inactive); in the test on DU-145 it was > 100 µM (inactive); with SF-268 it was > 100 µM (inactive); in the test on A498 it was 58.9 µM (inactive); with SNB-19 it was 35.6 µM (inactive); with OVCAR-5 it was > 100 µM (inactive). Further, the GI50 is 18.2 µM (inactive) in the test on HOP-92; 23.8 µM (inactive) with Hs-578T; > 100 µM (inactive) with HCT-116; 24.3 µM (inactive) in the test with ACHN; 36.7 µM (inactive) in the test on 786-0; > 100 µM (inactive) with MCF7. The GI50 in the test on HT-29 was > 100 µM (inactive).

`CC(=O)SC(C[N+](=O)[O-])c1ccc2c(c1)OCO2` (configuration not stated): the GI50 in the test with RPMI-8226 was 1.39 µM (inactive); with TK-10 it was 14.4 µM (inactive); in the test on COLO 205, 6.37 µM (inactive); with CCRF-CEM, 4.8 µM (inactive); in the test on BT-549 it was 6.17 µM (inactive); in the test on U-251 it was 5.37 µM (inactive). In addition, the GI50 in the test on SF-295 is 10.9 µM (inactive); with DU-145 it was 11 µM (inactive); in the test with SF-268, 15.9 µM (inactive); in the test on A498, 3.02 µM (inactive); with SNB-19, 9.31 µM (inactive); in the test on OVCAR-5, 7.83 µM (inactive). Further, the GI50 with HOP-92 is 12 µM (inactive); in the test with Hs-578T it was 12.9 µM (inactive); in the test with HCT-116 it was 2.31 µM (inactive); in the test with ACHN it was 8.81 µM (inactive); in the test with 786-0, 3.64 µM (inactive); in the test with MCF7, 3 µM (inactive). Moreover, the GI50 in the test with HT-29 is 2.49 µM (inactive).

With `OCCCCn1cc(Cn2ncc3c(NCc4ccccc4)ncnc32)nn1`, the GI50 in the test on RPMI-8226, in the test with TK-10, in the test with COLO 205, in the test on CCRF-CEM, with BT-549 and with U-251 was > 100 µM (inactive) each time. Also, the GI50 in the test on SF-295, in the test with DU-145, in the test with SF-268, with A498, in the test with SNB-19 and in the test with OVCAR-5 was > 100 µM (inactive) in each case. Moreover, the GI50 with HOP-92, in the test on Hs-578T, in the test on HCT-116, in the test on ACHN, in the test on 786-0 and in the test with MCF7 was > 100 µM (inactive) in each case. The GI50 with HT-29 was > 100 µM (inactive).

Regarding `CN(CCCNC(=O)c1c2ccc3ccccc3c2nn1C)CCCNC(=O)c1c2ccc3ccccc3c2nn1C`, the GI50 with RPMI-8226 was 1.95 µM (inactive); in the test on TK-10 it was 2.67 µM (inactive); in the test on COLO 205, 1.81 µM (inactive); with CCRF-CEM, 8.18 µM (inactive); in the test on BT-549, 10.6 µM (inactive); in the test on U-251 it was 7.85 µM (inactive). Besides, the GI50 was 4.29 µM (inactive) with SF-295; 17.5 µM (inactive) in the test on DU-145; 11.5 µM (inactive) in the test with SF-268; 6.9 µM (inactive) in the test on A498; 14.9 µM (inactive) with SNB-19; 11.5 µM (inactive) in the test on OVCAR-5. Further, the GI50 with HOP-92 was 3.21 µM (inactive); with Hs-578T, 14.2 µM (inactive); with HCT-116 it was 4.76 µM (inactive); in the test with ACHN, 11.5 µM (inactive); in the test on 786-0, 11.6 µM (inactive); with MCF7, 3.94 µM (inactive). Also, the GI50 with HT-29 was 2.53 µM (inactive).

On to `Cc1ccc2c(ccc3c[n+]4ccccc4c(C)c32)c1.[O-][Cl+3]([O-])([O-])[O-]`, for which the GI50 with RPMI-8226 is 4.15 µM (inactive); in the test with TK-10, 23.4 µM (inactive); in the test on COLO 205, 1.32 µM (inactive); in the test with CCRF-CEM, 6.64 µM (inactive); in the test with BT-549 it was 1.15 µM (inactive); in the test with U-251, 0.581 µM (active). Besides, the GI50 with SF-295 was 1.39 µM (inactive); in the test on DU-145 it was 1.13 µM (inactive); with SF-268 it was 1.29 µM (inactive); in the test on A498, 13.4 µM (inactive); in the test with SNB-19 it was 0.451 µM (active); with OVCAR-5, 10.5 µM (inactive). For the same compound, the GI50 in the test with HOP-92 was 4.1 µM (inactive); in the test on Hs-578T it was 3.05 µM (inactive); in the test with HCT-116, 4.59 µM (inactive); in the test with ACHN, 6.7 µM (inactive); in the test with 786-0, 2.51 µM (inactive); in the test on MCF7, 2.89 µM (inactive). Moreover, in the test on HT-29, the GI50 is 6.15 µM (inactive).

`COc1cc2c(cc1OC)C1c3ccccc3CCCN1CC2` (configuration not stated): the GI50 in the test with RPMI-8226 is 46.7 µM (inactive); in the test on TK-10, > 100 µM (inactive); in the test with COLO 205, > 100 µM (inactive); with CCRF-CEM it was > 100 µM (inactive); in the test on BT-549 it was > 100 µM (inactive); in the test with U-251, > 100 µM (inactive). Also, the GI50 with SF-295 is 47.6 µM (inactive); with DU-145, > 100 µM (inactive); in the test on SF-268 it was > 100 µM (inactive); with A498, > 100 µM (inactive); in the test with SNB-19 it was > 100 µM (inactive); with OVCAR-5, > 100 µM (inactive). The GI50 in the test on HOP-92 was 33 µM (inactive); in the test with Hs-578T, > 100 µM (inactive); with HCT-116, 36.4 µM (inactive); in the test on ACHN, > 100 µM (inactive); in the test with 786-0, > 100 µM (inactive); in the test on MCF7 it was > 100 µM (inactive). In the test with HT-29, the GI50 was 51.2 µM (inactive).

For the compound `c1ccc2c(c1)CCN1CCc3c([nH]c4ccccc34)C21` (configuration not stated), the GI50 in the test with RPMI-8226 was 23 µM (inactive); with TK-10, 42 µM (inactive); in the test with COLO 205, 21.4 µM (inactive); in the test on CCRF-CEM it was 31.5 µM (inactive); with BT-549, 27.3 µM (inactive); with U-251 it was 34.2 µM (inactive). Also, the GI50 in the test on SF-295 was 20 µM (inactive); in the test with DU-145 it was 40.6 µM (inactive); with SF-268, 30.8 µM (inactive); with A498 it was 22.9 µM (inactive); in the test with SNB-19, 67.5 µM (inactive); in the test with OVCAR-5, 22.4 µM (inactive). Moreover, the GI50 in the test with HOP-92 is 22.2 µM (inactive); in the test on Hs-578T it was 53.2 µM (inactive); with HCT-116 it was 24.2 µM (inactive); in the test with ACHN, 31.3 µM (inactive); with 786-0, 38.3 µM (inactive); with MCF7, 63.7 µM (inactive). For the same compound, the GI50 with HT-29 was 26.9 µM (inactive).
